Values joined by “and” are separate entries in the source; they are usually repeats but may differ in a detail not shown here. Equal entries are not always repeated.
Assays:
[1] = system: 60% high fat Paigen diet induced NASH mouse model; test: Short-term (21 day) Paigen-diet NASH mouse model: plasma ALT, AST, triglycerides, cholesterol, free fatty acids; type: in vivo
Procedure: To investigate whether Compound #37 prevents the development of pathology associated with NASH and steatosis in an acute exploratory disease model, a study was conducted using a diet-induced acute liver steatosis model in mice. As described below, in this study, C57BL/6J mice were initiated on the Paigen diet and simultaneously treated with Compound #37 (5, 20, and 40 mg/kg/day) or vehicle control (20% HPβCD 10 mL/kg/day) by oral gavage for 21 days.
After acclimation, 8-week old male C57Bl/6J mice (Charles River) weighing about 25 g were randomized in 4 groups according their body weight and treated once daily around noon by oral gavage with vehicle, or Compound #37 at various for 21 days as follows: Group 1: vehicle-20% (2-hydroxypropyl)-β-cyclodextrin (HP-β-CD) (n=10); Group 2: Compound #37, 5 mg/kg (n=10) Group 3: Compound #37, 20 mg/kg (n=10) Group 4: Compound #37, 40 mg/kg (n=10). During the treatment period, body weight and food intake (measured over 24h) were measured 3 times per week and once a week, respectively. During the acclimation, all mice were fed a standard diet (Special Diets Services RM1 (E), product no. 801492) and tap water ad libitum. After the acclimation period, mice were fed until the end of the experiment with a 60% high fat Paigen diet (60 kcal % fat, 1.25% cholesterol, and 0.5% cholate; D11061901, Research Diet) and tap water ad libitum.
One hour after the last dosing (noon), blood was collected by retro-orbital bleeding (maximal volume on EDTA) under isoflurane anesthesia to measure plasma triglycerides, total cholesterol, non-esterified fatty acid, ALT and AST. Mice were then sacrificed by cervical dislocation, and livers were harvested and weighed. Liver samples from the same lobe were dissected, frozen, and analyzed as described below.
Data Analysis. Values are presented as mean±standard error of the mean (sem). To assess the compound effect, treated groups were compared to vehicle with a 1-way ANOVA+Dunnett's post-test. […] For RT-qPCR and score Kruskall-Wallis test was performed with Dunns post-test. For body weight evolution the treated groups were compared to vehicle with a 2-way ANOVA with Bonferroni post-test. For each test, a p<0.05 was considered significant.

[2] = 28-day repeat-dose toxicity study in healthy rats: plasma exposure (AUC24h); type: in vivo, rat; settings: day 28
Procedure: In the repeat-dose toxicity study in rats (Compound #37P018), Compound #37 was given at 0 (vehicle control), 50, 100/75, and 200/150 mg/kg/day for 28 days; some animals from each dose group continued into a 28-day recovery period. After 28 days of treatment, liver neutral lipids from treated and control animals were analyzed with Oil Red O staining.
The more pronounced effects in female rats compared with male rats is consistent with the observed higher plasma exposure (>4-fold higher area under the curve over 24 hours [AUC24h]) at day 28 in females compared with males. Evidence of an effect of Compound #37 on leptin concentrations was also observed in female rats in a dose-dependent manner. As animals gain weight, leptin concentrations naturally increase due to its origin from adipose tissue. Female rats treated with Compound #37 had lower concentrations of leptin compared with the vehicle control group during the treatment period (day 4 and day 28), which was not observed after treatment termination and recovery (day 56) (FIG. 7).

[3] = system: diet-induced NASH obese insulin resistant mice; test: DIN mouse model: liver weight and liver lipid levels; type: in vivo; set-up: liver weight: unit not given here; settings: 20 mg/kg
Procedure: Male C57Bl/6J mice (8 weeks old) were housed in enriched ventilated cages (31×12.5×12.7 cm) throughout the experimental phase. Animals' cages litters were changed at least once a week. Animal were housed 5 per cage on inverted 12-hour light cycle (at 09:00 am lights off), 22±2° C. and 55±10% relative humidity. The acclimation period was 20 days. During the acclimation period, all mice were fed a standard diet (RM1 (E) 801492, SDS) and tap water ad libitum. After the acclimation period, mice were fed with the DIN diet (60% fat, cholesterol enriched) and fructose-enriched tap water ad libitum until the end of the experiment.
At 6 weeks of diet, mice were 4-hour fasted (09:00 am to 1:00 pm) and blood (150 μl/EDTA) was collected at 01:00 pm by retro-orbital bleeding under isoflurane anesthesia. Mice were then allocated in 2 homogenous groups (n=12/group) according to their plasma levels of ALT (average levels: 685U/L), AST (average levels: 627U/L) and HOMA-IR index (average value: 4.7), into 2 homogenous groups (see values at day 0 in Tables 15A and 15B ALT/AST and Tables 16A and 16B for HOMA-IR). Mice were then treated once daily by oral gavage with vehicle (Group 1) or Compound #37 at 20 mg/kg (Group 2) for 70 days.
To investigate whether Compound #37 improves pre-existing steatosis/NASH pathology, a study was conducted using a 16-week diet-induced NASH mouse model. In this model, mice develop steatosis that progresses with inflammation and fibrosis that mimic many of the observed pathologies in human nonalcoholic fatty liver disease (NAFLD) and NASH (Hebbard & George, 2010). For 6 weeks, mice were fed a high-fat, high-cholesterol diet and provided drinking water containing fructose to induce liver pathology (Charlton et al, 2011). After 6 weeks, the mice were divided into 2 groups with similar mean aspartate aminotransferase (AST) and alanine aminotransferase (ALT) values (n=12 mice), although it should be noted that AST and ALT concentrations within both groups were higher and with greater variability than anticipated (e.g., mean ALT 677 U/L [SD, 401 U/L] in the vehicle control group and 693 U/L [SD, 365 U/L] in the Compound #37 group). After the animals were divided into 2 groups, the diet was continued for 10 additional weeks during which time 1 group received vehicle and the other was treated with 20 mg/kg/day Compound #37.

[4] = 5 mg/kg p.o. daily, 21 days of diet and treatment, group mean
[5] = 5 mg/kg p.o. daily, 21 days of diet and treatment, individual animals
[6] = 20 mg/kg p.o. daily, 21 days of diet and treatment, group mean
[7] = 20 mg/kg p.o. daily, 21 days of diet and treatment, individual animals
[8] = 40 mg/kg p.o. (stopped after 4 administrations), 9 days of diet, group mean
[9] = 40 mg/kg p.o. (stopped after 4 administrations), 9 days of diet, individual animals

CC(C)Cc1cc(-c2nc(-c3ccc(NS(=O)(=O)C(F)(F)F)cc3Cl)cs2)ccn1 [Compound 37, N-(3-chloro-4-(2-(2-isobutylpyridin-4-yl)thiazol-4-yl)phenyl)-1,1,1-trifluoromethanesulfonamide]
ALT (U/L) [1, 4]: 419.3 U/L
AST (U/L) [1, 4]: 449.4 U/L
AST/ALT ratio [1, 4]: 1.2
ALT (U/L) [1, 5]: 382 U/L and 620 U/L and 346 U/L and 825 U/L and 267 U/L and 246 U/L and 255 U/L and 447 U/L and 435 U/L and 370 U/L
AST (U/L) [1, 5]: 350 U/L and 416 U/L and 710 U/L and 405 U/L and 286 U/L and 392 U/L and 481 U/L and 528 U/L and 477 U/L
AST/ALT ratio [1, 5]: 0.92 and 1.20 and 0.86 and 1.52 and 1.16 and 1.54 and 1.08 and 1.21 and 1.29
ALT (U/L) [1, 6]: 403.5 U/L
AST (U/L) [1, 6]: 431.2 U/L
AST/ALT ratio [1, 6]: 1.1
ALT (U/L) [1, 7]: 266 U/L and 587 U/L and 432 U/L and 413 U/L and 385 U/L and 338 U/L
AST (U/L) [1, 7]: 362 U/L and 467 U/L and 344 U/L and 615 U/L and 424 U/L and 375 U/L
AST/ALT ratio [1, 7]: 1.36 and 0.80 (2×) and 1.49 and 1.10 and 1.11
ALT (U/L) [1, 8]: 7043.8 U/L
AST (U/L) [1, 8]: 2685.0 U/L
AST/ALT ratio [1, 8]: 0.8
ALT (U/L) [1, 9]: 1095 U/L and 1160 U/L and 12560 U/L and 13360 U/L
AST (U/L) [1, 9]: 1165 U/L and 1555 U/L and 3900 U/L and 4120 U/L
AST/ALT ratio [1, 9]: 1.1 and 1.3 and 0.3 (2×)
mean AST and ALT ([1]; 40 mg/kg, 4 surviving animals, sacrifice on day 9): > 2500 U/L
ALT and AST levels ([1]; 40 mg/kg, day 9): very high
ALT (U/L) Mean ([1]; Table B7, 5 mg/kg): 419.30 U/L
AST (U/L) Mean ([1]; Table B7, 5 mg/kg): 449.44 U/L
ALT (U/L) Mean ([1]; Table B7, 20 mg/kg): 403.50 U/L
AST (U/L) Mean ([1]; Table B7, 20 mg/kg): 431.17 U/L
plasma exposure (AUC24h) in females compared with males [2]: > 4 fold
Liver weight increase ([3]; 70 days): 21%
Hepatic total cholesterol levels increase ([3]; 70 days, p<0.05 vs. vehicle): 17%
liver cholesterol ([3]; group mean, n 11): 28.2 µg/mg
liver fatty acids ([3]; group mean, n 11): 63.2 nmol/mg
liver triglycerides ([3]; group mean, n 11): 133.8 µg/mg
liver weight ([3]; group mean, n 11): 2.56
liver cholesterol ([3]; individual animals): 27.4 µg/mg and 32.2 µg/mg and 25.8 µg/mg and 28.4 µg/mg and 28.3 µg/mg and 27.1 µg/mg and 29.9 µg/mg and 20.7 µg/mg and 31.3 µg/mg and 34.0 µg/mg and 25.3 µg/mg
liver fatty acids ([3]; individual animals): 72.2 nmol/mg and 67.2 nmol/mg and 56.2 nmol/mg and 82.8 nmol/mg and 56.8 nmol/mg and 47.8 nmol/mg and 68.4 nmol/mg and 43.9 nmol/mg and 70.0 nmol/mg and 76.7 nmol/mg and 53.2 nmol/mg
liver triglycerides ([3]; individual animals): 262.5 µg/mg and 203.3 µg/mg and 72.2 µg/mg and 162.3 µg/mg and 101.9 µg/mg and 53.6 µg/mg and 178.1 µg/mg and 48.9 µg/mg and 91.5 µg/mg and 195 µg/mg and 102.6 µg/mg
liver weight ([3]; individual animals): 3.24 and 2.72 and 1.97 (2×) and 2.74 and 2.39 and 2.54 and 2.44 and 2.67 and 3.05 and 2.40

From patent US10183015B2, “Heterocyclic compounds and methods of use” (Medivation Technologies LLC, priority 2015, dated 2019)
